Test results reported in US20210230159A1, “4H-PYRIDO[1,2-A]PYRIMIDIN-4-ONE COMPOUNDS” (Prana Biotechnology Limited, priority 2014, published 2021).

Test: Hydrogen peroxide (H2O2) inhibition assay (fluorescence, DCF/horseradish peroxidase)
Type: biochemical
Details: for IC50: HCl salt tested where HCl salt MW is given; for Fe-ASC % (cf. 0.4 uM Fe/Asc; cf. CQ, CQ = 100%) / Cu % ASC (cf. CQ = 100%) / Zn % ASC (cf. CQ = 100%): ascorbic acid as reducing substrate; for Fe-ASC % (cf. 0.4 uM Fe/Asc; cf. CQ, CQ = 100%) / Fe-DA % (cf. 0.4 uM Fe/DA; cf. CQ, CQ = 100%): test compound 0.4 μM, lower values = greater inhibition of H2O2; for Fe-DA % (cf. 0.4 uM Fe/DA; cf. CQ, CQ = 100%): dopamine as reducing substrate
Method: Assay 1. Hydrogen Peroxide Assay
H2O2 is a strong oxidizer and a highly reactive oxygen species that is known to be toxic to surrounding proteins and organelles, inhibiting their function. […] […] H2O2 generated by the system is assessed by measuring the specific fluorescence profile at the excitation and emission wavelengths of 485 and 530 nm respectively, in the presence of test compound. Test compounds were dissolved in DMSO and tested at concentrations of 0.4 μM. Test compounds are ranked according to their capacity to inhibit H2O2 generated by the system where lower values reflect greater ability to inhibit H2O2 production.

Row | SMILES | IC50 [nM] | Fe-ASC % (cf. 0.4 uM Fe/Asc; cf. CQ, CQ = 100%) [% ASC] | Fe-DA % (cf. 0.4 uM Fe/DA; cf. CQ, CQ = 100%) [%] | Cu % ASC (cf. CQ = 100%) | Zn % ASC (cf. CQ = 100%)
1 | CCCCCCCNC(=O)C1=CNC2C(O)=CC=CN2C1=O (stereo not shown) [Compound 1462] | 460 | 72 | 54 | – | –
2 | COc1ccc(CNCc2cc(=O)n3cccc(O)c3n2)cc1OC [Compound 1463] | 590 | 158 | 73 | – | –
3 | O=c1cc(CNCc2ccc(OC(F)(F)F)cc2)nc2c(O)cccn12 [Compound 1464] | 470 | 135 | 47 | – | –
4 | Cc1ccc(O)c2nc(CN(C)C)cc(=O)n12 [Compound 1466] | 340 | >234 | 47 | – | –
5 | Cc1ccc(O)c2nc(CNCc3ccc(F)cc3)cc(=O)n12 [Compound 1467] | 440 | 74 | 42 | – | –
6 | Cc1ccc(O)c2nc(CNC3CCCCC3)cc(=O)n12 [Compound 1468] | 210 | 169 | 39 | – | –
7 | Cc1ccc(O)c2nc(CNCc3ccc(Cl)cc3)cc(=O)n12 [Compound 1469] | 500 | 63 | 43 | – | –
8 | CCCNCc1cc(=O)n2c(C)ccc(O)c2n1 [Compound 1470] | 350 | >234 | 38 | – | –
9 | Cc1ccc(O)c2nc(CN3CCCCC3)cc(=O)n12 [Compound 1471] | 300 | 125 | 62 | – | –
10 | CN(CCc1ccccn1)Cc1cc(=O)n2cccc(O)c2n1 [Compound 1476] | 230 | 122 | 46 | – | –
11 | Cc1ccc(CNCc2cc(=O)n3cccc(O)c3n2)cc1 [Compound 1478] | 3120 | 198 | 75 | – | –
12 | CN(Cc1ccc(F)cc1)Cc1cc(=O)n2cccc(O)c2n1 [Compound 1479] | 460 | 147 | 42 | – | –
13 | CCCCN(C)Cc1cc(=O)n2cccc(O)c2n1 [Compound 1485] | 530 | 159 | 57 | – | –
14 | CCN(CC)Cc1cc(=O)n2c(C)ccc(O)c2n1 [Compound 1490] | 400 | 178 | 55 | – | –
15 | C#CCN(C)Cc1cc(=O)n2c(C)ccc(O)c2n1 [Compound 1491] | 300 | >222 | 48 | – | –
16 | Cc1ccc(O)c2nc(CN(C)Cc3ccc(F)cc3)cc(=O)n12 [Compound 1500] | 360 | 171 | 42 | – | –
17 | Cc1ccc(O)c2nc(CNCC3CCCCC3)cc(=O)n12 [Compound 1503] | 230 | 204 | 42 | – | –
18 | Cc1ccc(O)c2nc(CNCCc3ccccn3)cc(=O)n12 [Compound 1504] | 310 | 160 | 33 | – | –
19 | CC1CCN(Cc2cc(=O)n3cccc(O)c3n2)CC1 [Compound 1506] | > 10000 | 161 | 48 | – | –

Row | SMILES | IC50 [nM] | Fe-ASC % (cf. 0.4 uM Fe/Asc; cf. CQ, CQ = 100%) [% ASC] | Fe-DA % (cf. 0.4 uM Fe/DA; cf. CQ, CQ = 100%) [%] | Cu % ASC (cf. CQ = 100%) | Zn % ASC (cf. CQ = 100%)
20 | Cc1ccc(O)c2nc(CN3CCC(C)CC3)cc(=O)n12 [Compound 1508] | 170 | 148 | 32 | – | –
21 | O=c1cc(CN2CCN(Cc3ccccc3F)CC2)nc2c(O)cccn12 [Compound 1515] | 1000 | 103 | 54 | – | –
22 | CN(Cc1cc(=O)n2cccc(O)c2n1)Cc1ccccc1F [Compound 1516] | 300 | 102 | 52 | – | –
23 | CN(Cc1cccc(F)c1)Cc1cc(=O)n2cccc(O)c2n1 [Compound 1517] | 350 | 105 | 55 | – | –
24 | CN(Cc1cccc(Cl)c1)Cc1cc(=O)n2cccc(O)c2n1 [Compound 1518] | 580 | 84 | 49 | – | –
25 | Cc1ccc(O)c2nc(CN(C)Cc3cccc(Cl)c3)cc(=O)n12 [Compound 1519] | 350 | 100 | 47 | – | –
26 | CN(Cc1cc(=O)n2cccc(O)c2n1)C1CCCCC1 [Compound 1521] | > 10000 | 123 | 50 | – | –
27 | Cc1ccc(O)c2nc(CN3CCN(Cc4ccccc4F)CC3)cc(=O)n12 [Compound 1522-] | 440 | 156 | 47 | – | –
28 | Cc1ccc(O)c2nc(CN(C)C3CCCCC3)cc(=O)n12 [Compound 1523] | 700 | 135 | 49 | – | –
29 | Cc1ccc(O)c2nc(CN(C)Cc3cccc(F)c3)cc(=O)n12 [Compound 1525] | 320 | 105 | 46 | – | –
30 | Cc1ccc(O)c2nc(CN(C)Cc3ccccc3F)cc(=O)n12 [Compound 1527] | 330 | 133 | 64 | – | –
31 | Cc1cccc(NCc2cc(=O)n3c(C)ccc(O)c3n2)n1 [Compound 1531] | 1480 | – | – | – | –
32 | O=C(c1cnc2c(O)cccn2c1=O)N1CCCC1 [Compound 1532] | 900 | – | – | – | –
33 | O=C(c1cnc2c(O)cccn2c1=O)N1CCCCC1 [Compound 1533] | 1190 | – | – | – | –
34 | CCCc1cnc2c(O)c(-c3cccnc3)c(Cl)cn2c1=O [Compound 1629, 7-Chloro-9-hydroxy-3-propyl-8-(pyridin-3-yl)-4H-pyrido[1,2-a]pyrimidine-4-one] | – | – | – | Cu 204% ASC | Zn 130% ASC
35 | CCCc1cnc2c(O)c(-c3c(C)noc3C)c(Cl)cn2c1=O [Compound 1630] | – | – | – | Cu 213% ASC | Zn 129% ASC
36 | CCCc1cnc2c(O)c(CN(C)C)ccn2c1=O [Compound 1631] | – | – | – | Cu 248% ASC | Zn 101% ASC
37 | CC(C)c1cnc2c(O)c(CN(C)C)ccn2c1=O [Compound 1632] | – | – | – | Cu 228% ASC | Zn 106% ASC
38 | CC(C)c1cnc2c(O)c(-c3cnn(C)c3)ccn2c1=O [Compound 1633] | – | – | – | Cu 17% ASC | Zn 140% ASC
